# Assay results published in patent US6376511B2, “8-aminoquinolines” (The University of Mississippi, priority 1999, dated 2002).
# Read-outs that look alike come from different tables or passages of the source.
# Columns and labels:
# P. carinii = experiment: In vitro antipneumocystis activity; assay type: cell-based; conditions: Pneumocystis carinii, 168 h, read-out: % of control on day 7
# Toxoplasma gondii = experiment: In vitro evaluation against Toxoplasma gondii; assay type: cell-based; conditions: preliminary evaluation
# Leishmania = experiment: In vitro activity against a variety of strains of Leishmania; assay type: cell-based
# [1] = tested on: Plasmodium berghei KBG-173; assay type: in vivo; conditions: for Parasitemia Day 6: percentage of red blood cells with parasites, control 31.8
# Protocol: Blood Schizontocidal Test (Trophozoite-Induced Plasmodium berghei Infection in mice University of Miami, Test System: Thompson Test
# Drugs were mixed in 0.5% hydroxycellulose 0.1% Tween 80 and administered orally b.i.d. on days 3, 4 and 5 postinfection. CD-1 male or female mice, 5 weeks of age, were infected with 5×10^4 parasitized erythrocytes of Plasmodium berghei KBG-173 mm strain. Blood films were taken on day +6 and weekly thereafter until day +60. Parasitemias were calculated and SD90 value (dose suppressing 90% of the parasites in treated groups compared with the infected non-treated controls) on day +6 postinfection. Mortality data was tabulated for 60 days at which time all mice surviving that were blood film negative were considered cured.
# […] The activity of these compounds were compared with the untreated control and “racemate” which is a mixture of equal amount of each enantiomer X and Y. In untreated controls, death occurs within 8-9 days. Compounds which are effective against Plasmodium berghei infection increase the mean survival time of the infected animals when compared with the untreated controls. Mice that survive after thirty days and are free of parasites in blood are considered cured.
# Efficacy of the drug is determined by the number of cures at the end of a 30 day period and the increase in mean survival time over the control (ΔMST). The effect of the test drugs also could be determined by the reduction of the parasitemia (percentage of the red blood cells detected with the parasites) over the untreated control on day 6, one day after the treatment is completed. Both these methods yield virtually identical results. If the dose of test compounds are inadequate, after initial clearance, residual parasites will multiply and relapses will occur within thirty days. The blood schizontocidal activities (suppressive antimalarial) of X, Y, and racemate against P. berghei in mice are shown in Table 11.
# P. cynomolgi = conditions: rhesus monkey, cited from earlier work
# [2] = tested on: trypanosome isolate EATRO Lab 110; experiment: Antitrypanosomal activity, trypanosome isolates grown as blood forms in HMI-18; assay type: cell-based, Trypanosoma; conditions: Trypanosoma, 48 h
# Protocol: (§1) Compounds were tested vs. trypanosome isolates grown as blood forms in HMI-18 (Hirumi H., Hirumi, K. 1989. Continuous Cuitivation of Trypanosoma brucei bloodstream forms in a medium containing a low concentration of serum portein without feeder cell layers. J. Parasitol. 75:985-989) containing 20% horse serum.
# [3] = tested on: trypanosome isolate KETRI 269; experiment: as above; assay type: cell-based, Trypanosoma; conditions: Trypanosoma, 48 h
# Protocol: as §1
# [4] = tested on: trypanosome isolate KETRI 243As103; experiment: as above; assay type: cell-based, Trypanosoma; conditions: Trypanosoma, 48 h
# Protocol: as §1
# [5] = tested on: trypanosome isolate KETRI 243; experiment: as above; assay type: cell-based, Trypanosoma; conditions: Trypanosoma, 48 h
# Protocol: as §1
# Pneumocystis carinii = experiment: Anti-Pneumocystis carinii test (induced Pneumocystis carinii infection in immunosuppressed mice), oral; assay type: in vivo; conditions: mice
# L. mexicana amazonensis = experiment: In vitro anti-Leishmania activity, Giemsa counts; assay type: cell-based; conditions: 10 μg/mL; control 15.10 ± 2.18
# L. donovani Chagasi PP75 = experiment: In vitro anti-Leishmania activity, Giemsa counts; assay type: cell-based; conditions: control 6.35
# [6] = tested on: Plasmodium berghei KBG-173; experiment: Prophylactic test, Plasmodium berghei infection in mice, oral; assay type: in vivo; conditions: for Mice surviving day 60/Mice infected and treated: single dose of 2 mg/kg
# Excerpt: CD-I male or female mice, 5 weeks of age, were infected with 5×10^4 parasitized erythrocytes ot Plasmodium berghei KBG-173 mm strain. Blood films were taken on day +6 and weekly thereafter until day+30. […]
# P. berghei = conditions: single dose 72 h after infection, cited from earlier work
# [7] = 0.25 mg/kg/day, 0.75 mg/kg total
# [8] = oral 1.3 mg/kg/day (x21), mean score on 0 to 5+ scale
smiles,measurement,setting,value
"COc1cc(NC(C)CCCN)c2nccc(C)c2c1Oc1ccc(Cl)c(Cl)c1 (racemic) [DN3-27-1, 8-[(4-amino-1-methylbutyl)amino]-5-(3,4-dichlorophenoxy)-6-methoxy-4-methylquinoline]",activity at 0.1 µg/mL,P. carinii; concentration 0.1 μg/ml,76.7%
same,activity at 1 µg/mL,P. carinii; concentration 1.0 μg/ml,40.5%
same,activity at 10 µg/mL,P. carinii; concentration 10 μg/ml,3.2%
same,activity in vitro against Toxoplasma gondii (concentration),Toxoplasma gondii,around 50 μM
same,in vitro activity against a variety of strains of Leishmania,Leishmania,in vitro activity at very low concentrations
same,Mice Alive Day 26,[1]; [7],0/5
same,ΔMST (increase in mean survival time over the control),[1]; [7],11.6 days
same,Parasitemia Day 6,[1]; [7],4.8
same,Mice Alive Day 26,"[1]; 1 mg/kg/day, 3 mg/kg total",0/5
same,ΔMST (increase in mean survival time over the control),"[1]; 1 mg/kg/day, 3 mg/kg total",10.2 days
same,Parasitemia Day 6,"[1]; 1 mg/kg/day, 3 mg/kg total",0.1
same,toxicity in mice,[1]; highest dose tested (Table I),no mice showed toxicity at the highest dose tested
same,Mice surviving 60 days/Mice infected and treated,"[1]; oral dose 1 mg/kg/day (total dose 3 mg/kg), P. berghei in mice",7/7
same,Mice surviving 60 days/Mice infected and treated,"[1]; oral dose 4 mg/kg/day (total dose 12 mg/kg), P. berghei in mice",7/7
same,Mice surviving 60 days/Mice infected and treated,"[1]; oral dose 16 mg/kg/day (total dose 48 mg/kg), P. berghei in mice",7/7
same,Mice surviving 60 days/Mice infected and treated,"[1]; oral dose 64 mg/kg/day (total dose 192 mg/kg), P. berghei in mice",7/7
same,"blood schizonticidal activity, comparison among compounds of Table I","[1]; oral, P. berghei in mice",the most active
same,Monkeys infected and treated/cured,"P. cynomolgi; 0.1 mg/kg/day x7, orally",0/3
same,Monkeys infected and treated/cured,"P. cynomolgi; 0.316 mg/kg/day x7, orally",1/2
same,Monkeys infected and treated/cured,"P. cynomolgi; 1.0 mg/kg/day x7, orally",3/3
same,IC50,[2],9.4 µM
same,IC50,[3],5 µM
same,IC50,[4],10.9 µM
same,IC50,[5],29 µM
same,Giemsa Stain I/T (animals with organism after treatment/animals treated),Pneumocystis carinii; oral 0.25 mg/kg/day (x21),2/10
same,Giemsa Stain I/T (animals with organism after treatment/animals treated),Pneumocystis carinii; oral 1.3 mg/kg/day (x21),0/10
same,Silver stain I/T (animals with organism after treatment/animals treated),Pneumocystis carinii; oral 1.3 mg/kg/day (x21),0/10
same,Giemsa Stain Score,Pneumocystis carinii; [8],0.0
same,Silver stain Score,Pneumocystis carinii; [8],0.0
same,Giemsa Counts,L. mexicana amazonensis,1.30 ± 0.38
same,Giemsa Counts,L. donovani Chagasi PP75; 50 ng/mL,0.95 ± 0.27
same,Giemsa Counts,L. donovani Chagasi PP75; 150 ng/mL,0.10 ± 0.03
same,Giemsa Counts,L. donovani Chagasi PP75; 450 ng/mL,0.00 ± 0.00
same,Mice infected and Mice/treated surviving day 60,"[6]; day of treatment 1, dose 2 mg/kg",5/5
same,Mice infected and Mice/treated surviving day 60,"[6]; day of treatment 1, dose 8 mg/kg",5/5
same,Mice infected and Mice/treated surviving day 60,"[6]; day of treatment 1, dose 32 mg/kg",5/5
same,Mice infected and Mice/treated surviving day 60,"[6]; day of treatment 1, dose 128 mg/kg",5/5
same,Mice infected and Mice/treated surviving day 60,"[6]; day of treatment 2, dose 2 mg/kg",5/5
same,Mice infected and Mice/treated surviving day 60,"[6]; day of treatment 2, dose 8 mg/kg",5/5
same,Mice infected and Mice/treated surviving day 60,"[6]; day of treatment 2, dose 32 mg/kg",5/5
same,Mice infected and Mice/treated surviving day 60,"[6]; day of treatment 2, dose 128 mg/kg",5/5
same,Mice infected and Mice/treated surviving day 60,"[6]; day of treatment -1, dose 2 mg/kg",5/5
same,Mice infected and Mice/treated surviving day 60,"[6]; day of treatment -1, dose 8 mg/kg",5/5
same,Mice infected and Mice/treated surviving day 60,"[6]; day of treatment -1, dose 32 mg/kg",5/5
same,Mice infected and Mice/treated surviving day 60,"[6]; day of treatment -1, dose 128 mg/kg",5/5
same,Mice infected and Mice/treated surviving day 60,"[6]; day of treatment -2, dose 2 mg/kg",5/5
same,Mice infected and Mice/treated surviving day 60,"[6]; day of treatment -2, dose 8 mg/kg",5/5
same,Mice infected and Mice/treated surviving day 60,"[6]; day of treatment -2, dose 32 mg/kg",5/5
same,Mice infected and Mice/treated surviving day 60,"[6]; day of treatment -2, dose 128 mg/kg",5/5
same,Mice infected and Mice/treated surviving day 60,"[6]; day of treatment -3, dose 2 mg/kg",0/5
same,Mice infected and Mice/treated surviving day 60,"[6]; day of treatment -3, dose 8 mg/kg",5/5
same,Mice infected and Mice/treated surviving day 60,"[6]; day of treatment -3, dose 32 mg/kg",5/5
same,Mice infected and Mice/treated surviving day 60,"[6]; day of treatment -3, dose 128 mg/kg",5/5
same,protection from malaria,"[6]; single dose of 2 mg/kg within 2 days preinfection through 2 days post infection, mice",completely protected from malaria
same,Mice surviving day 60/Mice infected and treated,[6]; day of treatment 2 (Table 5),2/5
same,Mice surviving day 60/Mice infected and treated,[6]; day of treatment -2 (Table 5),0/5
same,Mice surviving day 60/Mice infected and treated,[6]; day of treatment -3 (Table 5),0/5
same,Mice surviving day 60/Mice infected and treated,[6]; day of treatment -4 (Table 5),0/5
same,Mice surviving day 60/Mice infected and treated,[6]; day of treatment -5 (Table 5),0/5
same,Mice infected and treated/Mice surviving 60 days,P. berghei; 5 mg/kg subcutaneously,5/4
same,Mice infected and treated/Mice surviving 60 days,P. berghei; 10 mg/kg subcutaneously,5/5
same,Mice infected and treated/Mice surviving 60 days,P. berghei; 20 mg/kg subcutaneously,5/5
same,Mice infected and treated/Mice surviving 60 days,P. berghei; 40 mg/kg subcutaneously,5/5
same,Mice infected and treated/Mice surviving 60 days,P. berghei; 80 mg/kg subcutaneously,5/5
same,Mice infected and treated/Mice surviving 60 days,P. berghei; 160 mg/kg subcutaneously,5/5
same,Mice infected and treated/Mice surviving 60 days,P. berghei; 320 mg/kg subcutaneously,5/5
same,Mice infected and treated/Mice surviving 60 days,P. berghei; 640 mg/kg subcutaneously,5/5
